Source: patent US8501238B2, “Anti-infective agents and uses thereof” (priority 2007, dated 2013)

How the values were obtained:
[1] = tested on: genotype 1b-Con1 subgenomic replicon cell line; test: microbe, parasite or virus in culture; type: cell-based, HCV; details: Hepatitis C virus, 72 h, read-out: EC50 1b
[2] = tested on: genotype 1a-H77 subgenomic replicon cell line; test: microbe, parasite or virus in culture; type: cell-based, HCV; details: Hepatitis C virus, 72 h, read-out: EC50 1a
[3] = target: T1, HCV polymerase 1A (Δ21 NS5B) (Hepatitis C virus genotype 1a, UniProt P27958); test: HCV Polymerase Inhibition Assay (1a); type: biochemical
T1 construct: 20 to 50nM Δ21 NS5B
Method: The reaction was initiated by the addition of 20μM CTP, 20μM ATP, 1μM ^3H-UTP (10mCi/umol), 5nM template RNA and 0.1 U/μl RNase inhibitor (RNasin, Promega), and allowed to proceed for 2 to 4h at room temperature. Reaction volume was 50μl. The reaction was terminated by the addition of 1 volume of 4mM spermine in 10mM Tris-Cl pH 8.0, 1mM EDTA. After incubation for at least 15 min at room temperature, the precipitated RNA was captured by filtering through a GF/B filter (Millipore) in a 96 well format. The filter plate was washed three times with 200μl each of 2mM spermine, 10mM Tris-Cl pH 8.0, lmM EDTA, and 2 times with ethanol. After air-drying, 30μl of Microscint 20 scintillation cocktail (Packard) was added to each well, and the retained cpm were determined by scintillation counting. […] Retained cpm were plotted vs. inhibitor concentration and fit to equation 1 using non-linear regression (ref. 1) to obtain the IC50 values: Retained cpm=A[sqrt{(IC50+It−Et)^2+4*IC50*Et}−([…])]
Ref. Morrison, J. F. and S. R. Stone. […] Approaches to the study and analysis of the inhibition of enzymes by slow- and tight-binding inhibitors. Comments Mol. Cell. Biophys.
(§1) The sequence of the template RNA used was: 5′-[…]-3′

[4] = target: T2, HCV polymerase 1B (Δ21 NS5B) (Hepatitis C virus genotype 1b, UniProt P26663); test: biochemical
T2 construct: 20 to 50nM Δ21 NS5B
Method: Either two-fold serial dilutions (fractional inhibition assay) or a narrower range of dilutions spanning the IC50 of the inhibitor (tight binding assay) of the inhibitors were incubated with 20mM Tris-Cl pH 7.4, 2 mM MnCl2, 1 mM dithiothreitol, 1 mM ethylene diamine tetraacetic acid (EDTA), 60 to 125μM GTP and 20 to 50nM Δ21 NS5B (HCV Strain 1B (BK, Genbank accession number M58335, or H77, Genbank accession number AF011751)) for 15min at room temperature. The reaction was initiated by the addition of 20μM CTP, 20μM ATP, 1μM ^3H-UTP (10mCi/umol), 5nM template RNA and 0.1 U/μl RNase inhibitor (RNasin, Promega), and allowed to proceed for 2 to 4h at room temperature. Reaction volume was 50μl. The reaction was terminated by the addition of 1 volume of 4mM spermine in 10mM Tris-Cl pH 8.0, 1mM EDTA. After incubation for at least 15 min at room temperature, the precipitated RNA was captured by filtering through a GF/B filter (Millipore) in a 96 well format. The filter plate was washed three times with 200μl each of 2mM spermine, 10mM Tris-Cl pH 8.0, lmM EDTA, and 2 times with ethanol. After air-drying, 30μl of Microscint 20 scintillation cocktail (Packard) was added to each well, and the retained cpm were determined by scintillation counting. […] Retained cpm were plotted vs. inhibitor concentration and fit to equation 1 using non-linear regression (ref. 1) to obtain the IC50 values: Retained cpm=A[sqrt{(IC50+It−Et)^2+4*IC50*Et}−([…])]
Ref. Morrison, J. F. and S. R. Stone. 1985. Approaches to the study and analysis of the inhibition of enzymes by slow- and tight-binding inhibitors. Comments Mol. Cell. Biophys. 2: 347-368.
as §1

T1 sequence (P27958 2421-2990, stated change not applied): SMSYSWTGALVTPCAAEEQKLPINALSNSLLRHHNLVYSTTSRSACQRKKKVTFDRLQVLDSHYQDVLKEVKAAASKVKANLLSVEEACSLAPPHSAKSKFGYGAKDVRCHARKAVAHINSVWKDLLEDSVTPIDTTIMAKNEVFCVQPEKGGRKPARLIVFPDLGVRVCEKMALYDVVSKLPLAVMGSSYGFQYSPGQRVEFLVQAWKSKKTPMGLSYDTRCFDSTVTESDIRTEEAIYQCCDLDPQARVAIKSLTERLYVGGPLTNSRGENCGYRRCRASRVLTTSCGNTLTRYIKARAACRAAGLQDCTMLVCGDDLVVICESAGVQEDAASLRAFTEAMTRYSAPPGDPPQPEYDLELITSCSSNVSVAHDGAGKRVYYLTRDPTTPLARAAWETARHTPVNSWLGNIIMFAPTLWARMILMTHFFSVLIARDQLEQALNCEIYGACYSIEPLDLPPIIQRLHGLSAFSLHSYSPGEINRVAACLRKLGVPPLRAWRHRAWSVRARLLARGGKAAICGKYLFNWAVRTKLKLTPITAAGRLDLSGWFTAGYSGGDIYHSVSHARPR
T2 sequence (P26663 2420-2989, stated change not applied): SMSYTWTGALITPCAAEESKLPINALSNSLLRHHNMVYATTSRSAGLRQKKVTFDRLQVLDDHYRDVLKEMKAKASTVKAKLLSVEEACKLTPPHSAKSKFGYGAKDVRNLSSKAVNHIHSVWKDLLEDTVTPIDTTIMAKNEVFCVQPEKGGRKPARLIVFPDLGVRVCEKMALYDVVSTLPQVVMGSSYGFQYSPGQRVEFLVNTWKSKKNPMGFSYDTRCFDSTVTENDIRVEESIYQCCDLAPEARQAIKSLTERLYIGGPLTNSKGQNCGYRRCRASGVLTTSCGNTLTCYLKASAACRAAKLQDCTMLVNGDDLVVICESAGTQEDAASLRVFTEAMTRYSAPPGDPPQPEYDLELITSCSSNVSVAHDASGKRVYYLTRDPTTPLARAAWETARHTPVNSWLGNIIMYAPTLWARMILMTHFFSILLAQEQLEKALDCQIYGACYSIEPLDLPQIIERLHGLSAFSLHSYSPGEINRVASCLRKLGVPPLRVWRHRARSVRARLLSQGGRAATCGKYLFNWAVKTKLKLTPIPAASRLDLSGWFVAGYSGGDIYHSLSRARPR

| SMILES | EC50 [1] [nM] | EC50 [2] [nM] | IC50 [3] [nM] | IC50 [4] [nM] |
| --- | --- | --- | --- | --- |
| COc1c(-c2ccc3c(c2)CC[C@@H]3CNS(C)(=O)=O)cc(-n2ccc(=O)[nH]c2=O)cc1C(C)(C)C (single isomer, unassigned) [IB-L0-2.9] | < 10 | < 10 |  |  |
| COc1c(-c2ccc3c(c2)CC[C@H]3CNS(C)(=O)=O)cc(-n2ccc(=O)[nH]c2=O)cc1C(C)(C)C (single isomer, unassigned) [IB-L0-2.15] | 10 to 100 | 100 to 1000 |  |  |
| COc1c(-c2ccc3c(c2)CC[C@@H]3C(C)(C)NS(C)(=O)=O)cc(-n2ccc(=O)[nH]c2=O)cc1C(C)(C)C (single isomer, unassigned) [IB-L0-2.22] | 10 to 100 | 100 to 1000 |  |  |
| COc1c(-c2ccc3c(c2)CC[C@H]3C(C)(C)NS(C)(=O)=O)cc(-n2ccc(=O)[nH]c2=O)cc1C(C)(C)C (single isomer, unassigned) [IB-L0-2.37] | 100 to 1000 | > 1000 |  |  |
| CC(C)(C)c1cc(-c2ccc3c(c2)CC/C3=N\NS(C)(=O)=O)cc(-n2ccc(=O)[nH]c2=O)c1 [IB-L0-2.7, (E)-N-(5-(3-tert-butyl-5-(2,4-dioxo-3,4-dihydropyrimidin-1(2H)-yl)phenyl)-2,3-dihydro-1H-inden-1-ylidene)methanesulfonohydrazide] | 10 to 100 | 100 to 1000 |  |  |
| COc1c(-c2ccc3c(CNS(C)(=O)=O)csc3c2)cc(-n2ccc(=O)[nH]c2=O)cc1C(C)(C)C [IB-L0-2.11] | < 10 | 10 to 100 |  |  |
| COc1c(-c2ccc3c(c2)CCC3(F)CNS(C)(=O)=O)cc(-n2ccc(=O)[nH]c2=O)cc1C(C)(C)C (centres unmarked) [IB-L0-2.12, N-((5-(3-tert-butyl-5-(2,4-dioxo-3,4-dihydropyrimidin-1(2H)-yl)-2-methoxyphenyl)-1-fluoro-2,3-dihydro-1H-inden-1-yl)methyl)methanesulfonamide] | < 10 | 10 to 100 |  |  |
| COc1c(-c2ccc3c(c2)CC=C3CNS(C)(=O)=O)cc(-n2ccc(=O)[nH]c2=O)cc1C(C)(C)C [IB-L0-2.13] | < 10 | 10 to 100 |  |  |
| COc1c(-c2ccc3c(c2)CC=C3CN(C)S(C)(=O)=O)cc(-n2ccc(=O)[nH]c2=O)cc1C(C)(C)C [IB-L0-2.16] |  |  | < 10 | 10 to 100 |
| COc1c(-c2ccc3c(c2)CCC3CNS(C)(=O)=O)cc(-n2ccc(=O)[nH]c2=O)cc1C(C)(C)C (centres unmarked) [IB-L0-2.17, N-((5-(3-tert-butyl-5-(2,4-dioxo-3,4-dihydropyrimidin-1(2H)-yl)-2-methoxyphenyl)-2,3-dihydro-1H-inden-1-yl)methyl)methanesulfonamide] | < 10 | 10 to 100 |  |  |
| COc1c(-c2ccc3c(CNS(C)(=O)=O)coc3c2)cc(-n2ccc(=O)[nH]c2=O)cc1C(C)(C)C [IB-L0-2.18] | 10 to 100 | 100 to 1000 |  |  |
| COc1c(-c2ccc3c(CN(C)S(C)(=O)=O)csc3c2)cc(-n2ccc(=O)[nH]c2=O)cc1C(C)(C)C [IB-L0-2.21] | 10 to 100 | 100 to 1000 |  |  |
| COC(=O)NN=C1CCc2cc(-c3cc(-n4ccc(=O)[nH]c4=O)cc(C(C)(C)C)c3OC)ccc21 [IB-L0-2.24, methyl 2-(5-(3-tert-butyl-5-(2,4-dioxo-3,4-dihydropyrimidin-1 (2H)-yl)-2-methoxyphenyl)-2,3-dihydro-1H-inden-1-ylidene)hydrazinecarboxylate] | 10 to 100 | 10 to 100 |  |  |
| COc1c(-c2ccc3c(c2)CCC3(C)CNS(C)(=O)=O)cc(-n2ccc(=O)[nH]c2=O)cc1C(C)(C)C (centres unmarked) [IB-L0-2.25, N-((5-(3-tert-butyl-5-(2,4-dioxo-3,4-dihydropyrimidin-1(2H)-yl)-2-methoxyphenyl)-1-methyl-2,3-dihydro-1H-inden-1-yl)methyl)methane sulfonamide] | 10 to 100 | 100 to 1000 |  |  |
| COc1c(-c2ccc3c(c2)CCC3C(C)(C)NS(C)(=O)=O)cc(-n2ccc(=O)[nH]c2=O)cc1C(C)(C)C (centres unmarked) [IB-L0-2.29, N-(2-(5-(3-tert-butyl-5-(2,4-dioxo-3,4-dihydropyrimidin-1(2H)-yl)-2-methoxyphenyl)-2,3-dihydro-1H-inden-1-yl)propan-2-yl)methanesulfonamide] | 10 to 100 | 100 to 1000 |  |  |
| COc1c(-c2ccc3c(c2)CCC3C(=O)NS(C)(=O)=O)cc(-n2ccc(=O)[nH]c2=O)cc1C(C)(C)C (centres unmarked) [IB-L0-2.34, 5-(3-tert-butyl-5-(2,4-dioxo-3,4-dihydropyrimidin-1(2H)-yl)-2-methoxyphenyl)-N-(methylsulfonyl)-2,3-dihydro-1H-indene-1-carboxamide] | 100 to 1000 | > 1000 |  |  |
| CC(C)(C)c1cc(-n2ccc(=O)[nH]c2=O)cc(-c2ccc3c(CNS(C)(=O)=O)csc3c2)c1Cl [IB-L0-2.35, N-((6-(3-tert-butyl-2-chloro-5-(2,4-dioxo-3,4-dihydropyrimidin-1(2H)-yl)phenyl)benzo [b]thiophen-3-yl)methyl)methanesulfonamide] | 100 to 1000 | > 1000 |  |  |
| COc1c(-c2ccc3c(c2)CCC3O)cc(-n2ccc(=O)[nH]c2=O)cc1C(C)(C)C (centres unmarked) [IB-L0-2.36, 1-(3-tert-butyl-5-(1-hydroxy-2,3-dihydro-1H-inden-5-yl)-4-methoxyphenyl)pyrimidine-2,4(1H,3H)-dione] | 10 to 100 | 100 to 1000 |  |  |
| COc1c(-c2ccc3cc(CNS(C)(=O)=O)sc3c2)cc(-n2ccc(=O)[nH]c2=O)cc1C(C)(C)C [IB-L0-2.40] | 100 to 1000 | > 1000 |  |  |
| COc1c(-c2ccc3c(c2)CCC3NS(C)(=O)=O)cc(-n2ccc(=O)[nH]c2=O)cc1C(C)(C)C (centres unmarked) [IB-L0-2.44, N-(5-(3-tert-butyl-5-(2,4-dioxo-3,4-dihydropyrimidin-1(2H)-yl)-2-methoxyphenyl)-2,3-dihydro-1H-inden-1-yl)methanesulfonamide] | > 1000 | > 1000 |  |  |
| CCCNc1nc2ccc(-c3cc(-n4ccc(=O)[nH]c4=O)cc(C(C)(C)C)c3OC)cc2s1 [IB-L0-2.46, 1-(3-tert-butyl-4-methoxy-5-(2-(propylamino)benzo[d]thiazol-6-yl)phenyl)pyrimidine-2,4(1H,3H)-dione] |  |  | 100 to 1000 | 100 to 1000 |
| COc1c(-c2ccc3nc(-n4c(C)ccc4C)sc3c2)cc(-n2ccc(=O)[nH]c2=O)cc1C(C)(C)C [IB-L0-2.47, 1-(3-tert-butyl-5-(2-(2,5-dimethyl-1H-pyrrol-1-yl)benzo[d]thiazol-6-yl)-4-methoxyphenyl)pyrimidine-2,4(1H,3H)-dione] |  |  | > 1000 | > 1000 |
| COc1c(-c2ccc3cc(NS(C)(=O)=O)ccc3n2)cc(-n2ccc(=O)[nH]c2=O)cc1C(C)(C)C [IB-L0-2.48, N-(2-(3-tert-butyl-5-(2,4-dioxo-3,4-dihydropyrimidin-1(2H)-yl)-2-methoxyphenyl)quinolin-6-yl)methanesulfonamide] |  |  | > 1000 | > 1000 |
| COc1c(-c2ccc3c(c2)CCC3=O)cc(-n2ccc(=O)[nH]c2=O)cc1C(C)(C)C [IB-L0-2.50, 1-(3-tert-butyl-4-methoxy-5-(1-oxo-2,3-dihydro-1H-inden-5-yl)phenyl)pyrimidine-2,4(1H,3H)-dione] | 100 to 1000 | 100 to 1000 |  |  |
| COc1c(-c2ccsc2)cc(-n2ccc(=O)[nH]c2=O)cc1-c1ccc2c(c1)CC=C2CNS(C)(=O)=O [IB-L0-2.62] | 10 to 100 | 100 to 1000 |  |  |
| COc1c(-c2ccc3c(c2)CC=C3CNS(C)(=O)=O)cc(-n2ccc(=O)[nH]c2=O)cc1-c1cccs1 [IB-L0-2.63] | 10 to 100 | 100 to 1000 |  |  |
| COc1c(-c2ccc3c(c2)CC=C3CNS(C)(=O)=O)cc(-n2ccc(=O)[nH]c2=O)cc1-c1ccco1 [IB-L0-2.65] | 10 to 100 | 100 to 1000 |  |  |
| COc1c(-c2ccoc2)cc(-n2ccc(=O)[nH]c2=O)cc1-c1ccc2c(c1)CC=C2CNS(C)(=O)=O [IB-L0-2.67] | 10 to 100 | 100 to 1000 |  |  |
